In patent US5464551A, “Stabilized phosphate ester-based functional fluid compositions” (Monsanto Company, priority 1993, dated 1995):

Experiments:
[1] = sample as named; W samples fresh
Mouse = test: Genotoxicity: mouse micronucleus; settings: in vivo
in vivo [2] = settings: chicken
[3] = in vivo
[4] = in vivo; remark: listed apart in the source
in vivo [5] = settings: topical or ocular
in vivo [6] = settings: po
Hen = settings: in vivo

SMILES | Independent Lab Cond. [1] [μMHO/cm] | Mouse micronucleus (Mouse) | Subchronic Bladder Hyperplasia, level in rats (Bladder) [ppm] | NOEL, subchronic bladder hyperplasia (Bladder; rats) [ppm] | Subchronic Bladder Hyperplasia, observation (Bladder; rats) | LD50 (in vivo [2]) [mg/kg] | Skin Irritation [3] | Eye Irritation [4] | LD50 (in vivo [5]) [mg/kg] | LD50 (in vivo [6]) [mg/kg] | Hen Neurotox (Hen) | Ames (Ames)
CCCCOP(=O)(OCCCC)Oc1ccccc1 [DBPP, dibutyl phenyl phosphate] | 0.008 | – | – | – | – | – | – | – | – | – | – | –
CC(C)COP(=O)(OCC(C)C)OCC(C)C [TIBP, triisobutyl phosphate] | – | negative | > 5000 | 5000 | None observed | > 5000 | Moderately irritating | Practically non-irritating | > 5000 | > 5000 | Not neurotoxic | negative
